Reference: the NIST ThermoML archive (doi:10.1016/j.jct.2014.02.016)

Test: refractive index (other wavelength) (dimensionless)
Conditions: 100 kPa, Liquid, Wavelength=632.8 nm, Angle minimization by sell rotation

CCCCCCCCCCC [undecane]
Conditions | refractive index
293.4 K | 1.4162
294.3 K | 1.4157
295.27 K | 1.4152
296.26 K | 1.4148
297.25 K | 1.4144
298.27 K | 1.4139
299.34 K | 1.4134
300.31 K | 1.413
301.27 K | 1.4126

COC(=O)OC [dimethyl carbonate]
Conditions | refractive index
293.16 K | 1.3678
294.29 K | 1.3673
295.28 K | 1.3669
296.28 K | 1.3663
297.28 K | 1.3659
298.3 K | 1.3654
300.3 K | 1.3644
302.3 K | 1.3635
303.4 K | 1.363

CCCCCCCCCCCCC [tridecane]
Conditions | refractive index
294.14 K | 1.4241
295.15 K | 1.4236
296.18 K | 1.4232
297.23 K | 1.4227
299.35 K | 1.4218
300.44 K | 1.4213
302.44 K | 1.4204
303.67 K | 1.4199
304.45 K | 1.4196
